The source of these data is ChEMBL document CHEMBL1122015, “Rigid analogues of dopamine: synthesis and interaction of 6-exo- and 6-endo-(3',4'-dihydroxyphenyl)-2-azabicyclo[2.2.2]octanes with dopamine uptake sites and receptors” (J Med Chem, 1982).

Experiment [1] is filed under the species Rattus norvegicus. The experiment can be described thus: Effect on DA-sensitive adenylate cyclase activity in rat striatal homogenates. The experiment is classed as functional.
The species entered for experiment [2] is Rattus norvegicus. The experiment can be described thus: Reported to half-maximally effective concentration of reserpine-pretreated rat.
For experiment [3], the species on record is Rattus norvegicus. The experiment can be described thus: Inhibition of the uptake of [3H]DA by corpus striatum synaptosomes of reserpine-pretreated rat. The experiment is classed as functional.

As to `NCCc1ccc(O)c(O)c1`, the Activity in the experiment filed under Rattus norvegicus [1] came to 210%.

Broadly, the IC50 is the concentration at which inhibition is half-maximal. Consider `N[C@H]1C[C@@H]1c1ccccc1` (racemic), for which the IC50 is 1.7 µM in the experiment listed under Rattus norvegicus [2] and 0.9 µM in the experiment filed under Rattus norvegicus [3] (Rattus norvegicus, Corpus striatum).

Consider `Oc1ccc([C@H]2CC3CC[C@H]2NC3)cc1O` (relative stereo) [listing 1 of 2 here], for which the IC50 in the experiment filed under Rattus norvegicus [3] is 32 µM.

Turning to `Oc1ccc([C@H]2CC3CC[C@H]2NC3)cc1O` (relative stereo) [listing 2 of 2 here], the Activity in the experiment filed under Rattus norvegicus [1] is 93%.

As for `Oc1ccc([C@H]2CC3CC[C@H]2NC3)cc1O` (stereo in doubt; 1) [listing 1 of 2 here], the IC50 in the experiment listed under Rattus norvegicus [3] came to 110 µM.

As for `Oc1ccc([C@H]2CC3CC[C@H]2NC3)cc1O` (stereo in doubt; 1) [listing 2 of 2 here], the Activity in the experiment filed under Rattus norvegicus [1] was found to be 117%.
